Our source for the pest or weed control values is patent US20120065066A1, “NOVEL HERBICIDES” (SYNGENTA CROP PROTECTION LLC, priority 2009, published 2012).

Assay type in all cases: in vivo
What all share (details): 312 h, evaluated after 13 days, 100=total damage to plant, 0=no damage to plant

Assay [1] concerns Echinochloa crus-galli (ECHCG). Briefly: Test Example B, post-emergence herbicidal test. How it is done:
(§1) Seeds of a variety of test species were sown in standard soil in pots. After cultivation for one day (pre-emergence) or after 8 days cultivation (post-emergence) under controlled conditions in a glasshouse (at 24/16° C., day/night; 14 hours light; 65% humidity), the plants were sprayed with an aqueous spray solution derived from the formulation of the technical active ingredient in acetone/water (50:50) solution containing 0.5% Tween 20 (polyoxyethelyene sorbitan monolaurate, CAS RN 9005-64-5). The test plants were then grown in a glasshouse under controlled conditions in a glasshouse (at 24/16° C., day/night; 14 hours light; 65% humidity) and watered twice daily. After 13 days for pre and post-emergence, the test was evaluated (100=total damage to plant; 0=no damage to plant). Test Plants: Setaria faberi (SETFA), Alopecurus myosuroides (ALOMY), Echinochloa crus-galli (ECHCG), and Avena fatua (AVEFA).

The test system of assay [2] is Alopecurus myosuroides (ALOMY). Briefly: Test Example B, post-emergence herbicidal test. How it is done: as §1
The test system of assay [3] is Avena fatua (AVEFA). Description: Test Example B, post-emergence herbicidal test. Here is the method: as §1
In assay [4] the test system is Echinochloa crus-galli (ECHCG). Description: Test Example B, pre-emergence herbicidal test. Here is the method:
as §1

The test system of assay [5] is Alopecurus myosuroides (ALOMY). Description: Test Example B, pre-emergence herbicidal test. Here is the method: as §1
For assay [6], the system named is Avena fatua (AVEFA). Description: Test Example B, pre-emergence herbicidal test. How it is done: as §1

Regarding `CCc1ccc(-c2ccc(Cl)c(Cl)c2)cc1C1=C(O)[C@H]2[C@H]3CC[C@H](C3)[C@H]2C1=O` [Compound T31], the pest or weed control at 250 g/ha in assay [1] was 100%; in assay [2] it was 60%; in the assay with Avena fatua (AVEFA) [3] it was 70%; in assay [4] it was 80%; in assay [5], 20%; with Avena fatua (AVEFA) [6], 70%.
For the compound `CCc1ccc(-c2ccc(F)cc2)cc1C1=C(O)[C@H]2[C@H]3CC[C@H](CC3)[C@H]2C1=O` [Compound T46], the pest or weed control at 250 g/ha was 100% in assay [1]; 50% in assay [2]; 30% in the assay with Avena fatua (AVEFA) [3]; 80% in assay [4]; 20% in assay [5]; 0% with Avena fatua (AVEFA) [6].
With `CCc1ccc(-c2ccc(Cl)cc2C)cc1C1=C(O)[C@H]2[C@H]3CC[C@H](CC3)[C@H]2C1=O` [Compound T12], the pest or weed control at 250 g/ha in assay [1] came to 100%; in assay [2] it was 90%; with Avena fatua (AVEFA) [3], 40%; in assay [4], 100%; in assay [5], 60%; in the assay with Avena fatua (AVEFA) [6], 20%.
On to `CCc1ccc(-c2ccc(Cl)c(F)c2F)cc1C1=C(O)[C@H]2[C@H]3CC[C@H](C3)[C@H]2C1=O` [Compound T40], for which the pest or weed control at 250 g/ha is 100% in assay [1]; 90% in assay [2]; 90% in the assay with Avena fatua (AVEFA) [3]; 100% in assay [4]; 50% in assay [5]; 60% in the assay on Avena fatua (AVEFA) [6].
Take `CCc1ccc(-c2ccc(Cl)c(F)c2F)cc1C1=C(O)[C@H]2[C@H]3CC[C@H](CC3)[C@H]2C1=O` [Compound T44]: the pest or weed control at 250 g/ha in assay [1] was 100%; in assay [2] it was 90%; in the assay on Avena fatua (AVEFA) [3] it was 80%; in assay [4], 70%; in assay [5] it was 0%; with Avena fatua (AVEFA) [6], 20%.
For the compound `CCc1ccc(-c2ccc(Cl)nc2Cl)cc1C1=C(O)[C@H]2[C@H]3CC[C@H](C3)[C@H]2C1=O` [Compound T37], the pest or weed control at 250 g/ha in assay [1] was 90%; in assay [2], 70%; in the assay on Avena fatua (AVEFA) [3] it was 0%; in assay [4], 90%; in assay [5], 50%; with Avena fatua (AVEFA) [6], 70%.
In the case of `CCc1ccc(-c2ccc(Cl)cc2F)cc1C1=C(O)[C@H]2[C@H]3CC[C@H](C3)[C@H]2C1=O` (racemic) [Compound T28, rac-(3aR,4R,7S,7aS)-2-(4′-chloro-4-ethyl-2′-fluorobiphenyl-3-yl)-hexahydro-4,7-methanoindene-1,3-dione], the pest or weed control at 250 g/ha in assay [1] amounted to 90%; in assay [2], 30%; with Avena fatua (AVEFA) [3] it was 10%; in assay [4], 100%; in assay [5], 60%; with Avena fatua (AVEFA) [6] it was 90%.
`CCc1ccc(-c2cc(Cl)sc2Cl)cc1C1=C(O)[C@H]2[C@H]3CC[C@H](CC3)[C@H]2C1=O` [Compound T15]: the pest or weed control at 250 g/ha in assay [1] came to 80%; in assay [2] it was 40%; with Avena fatua (AVEFA) [3], 30%; in assay [4], 30%; in assay [5], 0%; in the assay on Avena fatua (AVEFA) [6], 0%.
On to `CCc1ccc(-c2ccc(Cl)c(F)c2Cl)cc1C1=C(O)[C@H]2[C@H]3CC[C@H](C3)[C@H]2C1=O` [Compound T39], for which the pest or weed control at 250 g/ha in assay [1] turned out to be 100%; in assay [2] it was 70%; in the assay on Avena fatua (AVEFA) [3], 50%; in assay [4], 100%; in assay [5], 40%; in the assay with Avena fatua (AVEFA) [6] it was 70%.
